Data from ChEMBL document CHEMBL5046245, “Identification of Pyruvate Carboxylase as the Cellular Target of Natural Bibenzyls with Potent Anticancer Activity against Hepatocellular Carcinoma via Metabolic Reprogramming” (J Med Chem, 2022).
Active and inactive are the calls of the source. The rule behind the calls is not given here.

Tests used:
[1] = test system: SK-HEP1; assay: Inhibition of mesenchymal transition in human SK-HEP1 cells overexpressing PC assessed as effect on N-cadherin expression; type: functional, cell-based
[2] = test system: HCCLM3; assay: Anti-invasive activity against PC knockout human HCCLM3 cells assessed as suppression of cell invasion at 0.05 nM measured after 48 hrs by transwell assay; type: functional, cell-based
[3] = test system: HCCLM3; assay: Inhibition of epithelial-mesenchymal transition in human HCCLM3 cells assessed as upregulation of E-cadherin expression at 0.05 to 1 nM incubated for 24 hrs by Western blot analysis; type: functional, cell-based; settings: dose 0.05-1 nM
[4] = test system: HepG2; assay: Cytotoxicity against PC knockout human HepG2 cells assessed as reduction in cell viability at 20 to 100 nM measured after 48 hrs by MTT assay; type: functional, cell-based; settings: dose 20-100 nM
[5] = test system: HCCLM3; assay: Induction of apoptosis in human HCCLM3 cells assessed as decrease in cell viability at 20 to 40 nM incubated for 48 hrs in presence of 2 mM OAA MTT assay; type: functional, cell-based; settings: dose 20-40 nM
[6] = test system: HCCLM3; assay: Induction of glycolysis in PC knockout human HCCLM3 cells assessed as intracellular glucose consumption at 10 nM; type: functional, cell-based
[7] = test system: HCCLM3; assay: Cytotoxicity against PC knockout human HCCLM3 cells assessed as reduction in cell viability at 20 to 100 nM measured after 48 hrs by MTT assay; type: functional, cell-based; settings: dose 20-100 nM
[8] = Inhibition of pyruvate carboxylase in human HCCLM3 cells measured upto 24 hrs by PC assay kit; type: cell-based
[9] = test system: HCCLM3; assay: Inhibition of epithelial-mesenchymal transition in human HCCLM3 cells assessed as decrease in fibronectin expression level at 0.05 to 1 nM incubated for 24 hrs by Western blot analysis; type: functional, cell-based; settings: dose 0.05-1 nM
[10] = test system: HCCLM3; assay: Induction of apoptosis in human HCCLM3 cells assessed as cell shrinkage at 20 nM incubated for 24 hrs by DAPI staining based phase contrast microscopic analysis; type: functional
[11] = test system: HepG2; assay: Induction of apoptosis in human HepG2 cells assessed as increase cleaved PARP level measured after 24 hrs by Western blot analysis; type: functional, cell-based; settings: dose 10-40 nM
[12] = test system: HCCLM3; assay: Induction of glycolysis in human HCCLM3 cells assessed as decrease in level of fumarate at 5 nM; type: functional, cell-based
[13] = test system: HCCLM3; assay: Antitumor activity against human HCCLM3 cells xenografted in NCR-nu/nu mouse assessed reduction in tumor growth at 25 to 50 mg/kg, ip administered alternate days for 21 days and measured 26 days post implantation; type: functional, organism-based; settings: dose 25-50 mg/kg, time 21.0 day
[14] = test system: SK-HEP1; assay: Inhibition of mesenchymal transition in human SK-HEP1 cells overexpressing PC assessed as effect on fibronectin expression; type: functional, cell-based
[15] = test system: HepG2; assay: Induction of apoptosis in human HepG2 cells xenografted in NCR-nu/nu mouse assessed as increase in total apoptotic cells in tumor at 50 mg/kg, ip administered alternate days for 21 days and measured 26 days post implantation by TUNEL staining based confocal microscopic analysis; type: functional, organism-based; settings: time 21.0 day
[16] = test system: HCCLM3; assay: Induction of glycolysis in PC knockout human HCCLM3 cells assessed as intracellular lactate concentration at 10 nM CheKine lactate assay; type: functional, cell-based
[17] = Systemic toxicity in NCR-nu/nu mouse bearing human HCCLM3 tumor assessed as pathological change in spleen at 25 to 50 mg/kg, ip administered alternate days for 21 days and measured 26 days post implantation by H and E staining based analysis; type: organism-based; settings: in vivo, 504 h, dose 25-50 mg/kg, time 21 day
[18] = test system: HCCLM3; assay: Induction of glycolysis in human HCCLM3 cells assessed as decrease in level of succinate at 5 nM; type: functional, cell-based
[19] = test system: HCCLM3; assay: Reversal of H2O2-induced cell death in human HCCLM3 cells at 10 nM pretreated for 24 hrs followed by H2O2 addition and further incubated for 24 hrs in presence of OAA by MTT assay; type: functional, cell-based; settings: time 48.0 hrs
[20] = test system: HepG2; assay: Induction of apoptosis in human HepG2 cells assessed as activation of caspase 3 measured after 24 hrs by Western blot analysis; type: functional, cell-based; settings: dose 10-40 nM
[21] = test system: HepG2; assay: Induction of caspase-mediated apoptosis in human HepG2 cells assessed as reduction in cell viability at 100 to 400 nM incubated for 48 hrs in presence of Z-VAD-FMK by MTT assay; type: functional, cell-based; settings: dose 100-400 nM
[22] = test system: HepG2; assay: Induction of apoptosis in human HepG2 cells transfected with PC-flag plasmid assessed as reduction in cell viability at 20 to 100 nM incubated for 48 hrs by MTT assay; type: functional, cell-based; settings: dose 20-100 nM
[23] = Systemic toxicity in NCR-nu/nu mouse bearing human HCCLM3 tumor assessed as pathological change in heart at 25 to 50 mg/kg, ip administered alternate days for 21 days and measured 26 days post implantation by H and E staining based analysis; type: organism-based; settings: in vivo, 504 h, dose 25-50 mg/kg, time 21 day
[24] = test system: SK-HEP1; assay: Antiproliferative activity against human SK-HEP1 cells transfected with PC-flag plasmid assessed as reduction in cell viability incubated for 48 hrs by MTT assay; type: functional, cell-based
[25] = test system: HepG2; assay: Induction of apoptosis in human HepG2 cells assessed as nuclear condensation at 100 nM incubated for 24 hrs by DAPI staining based phase contrast microscopic analysis; type: functional, cell-based
[26] = test system: HCCLM3; assay: Inhibition of mitochondrial oxidative stress in PC knockout human HCCLM3 cells assessed as reduction in NADH/NAD ratio at 10 nM; type: functional, cell-based
[27] = test system: SK-HEP1; assay: Inhibition of epithelial transition in human SK-HEP1 cells overexpressing PC assessed as effect on E-cadherin expression; type: functional, cell-based
[28] = test system: HepG2; assay: Competitive inhibition of recombinant pyruvate carboxylase in human HepG2 cell lysate in presence of Erianin at 20 uM for 120 mins followed by irradiation of 365 nm UV light for 15 min by Native -PAGE analysis; type: subcellular
[29] = test system: HCCLM3; assay: Induction of glycolysis in human HCCLM3 cells assessed as decrease in level of L-lactate at 5 nM; type: functional, cell-based
[30] = test system: HCCLM3; assay: Induction of glycolysis in human HCCLM3 cells assessed as decrease in level of aspartate at 5 nM; type: functional, cell-based
[31] = test system: HepG2; assay: Induction of apoptosis in human HepG2 cells assessed as cell rounding at 100 nM incubated for 24 hrs by DAPI staining based phase contrast microscopic analysis; type: functional
[32] = target: AMP-activated protein kinase, AMPK (Homo sapiens) (UniProt P54646+O43741+P54619+Q9UGJ0+Q9Y478+Q13131+Q9UGI9); assay: Activation of AMPK pathway in human HCCLM3 cells assessed as increase in AMPK phosphorylation level at 5 nM measured after 1 hr by Western blot analysis; type: cell-based; settings: filed as activator
[33] = test system: HepG2; assay: Inhibition of pyruvate carboxylase in human HepG2 cells measured at 0.001 to 10 nM for 24 hrs; type: cell-based; settings: dose 0.001-10 nM
[34] = test system: HCCLM3; assay: Induction of apoptosis in human HCCLM3 cells assessed as nuclear condensation at 20 nM incubated for 24 hrs by DAPI staining based phase contrast microscopic analysis; type: functional, cell-based
[35] = Antitumor activity against human HCCLM3 cells xenografted in NCR-nu/nu mouse assessed wet tumor weight at 50 mg/kg, ip administered alternate days for 21 days and measured 26 days post implantation (Rvb= 1.835 +/- 0.15 g); type: functional; settings: time 21 day
[36] = test system: SK-HEP1; assay: Anti-invasive activity in human SK-HEP1 cells overexpressing PC assessed as suppression of cell invasion at 0.05 nM measured after 48 hrs by transwell assay; type: functional, cell-based

For `COc1ccc(CCc2cc(OC)c(OC)c(OC)c2)cc1O`, the inhibition [1] was “inactive”, the Activity [2] was “Active” and the inhibition [3] was “Active”. For the same compound, the Activity [4] was “inactive”, the Activity [5] was “inactive” and the Activity [6] was “Active”. The Activity [7] was “inactive”, the IC50 [8] was 13.1 µM and the inhibition [9] was “Active”. For the same compound, the Activity [10] was “Active”, the Activity [11] was “Dose-Dependent Effect” and the Activity [12] was “Active”. The Activity [13] was “Active”, the inhibition [14] was “inactive” and the Activity [15] was “Active”. For the same compound, the Activity [16] was “Active”, the Activity [17] was “Non-Toxic” and the Activity [18] was “Active”. The Activity [19] was “Active”, the Activity [20] was “Dose-Dependent Effect” and the Activity [21] was “inactive”. The Activity [22] was “inactive”, the Activity [23] was “Non-Toxic” and the Activity [24] was “Active”. The Activity [25] was “Active”, the inhibition [26] was “Active” and the inhibition [27] was “inactive”. For the same compound, the inhibition [28] was “Active”, the Activity [29] was “Active” and the Activity [30] was “Active”. For the same compound, the Activity [31] was “Active”, the Activity [32] was “Active” and the inhibition [33] was “inactive”. The Activity [34] was “Active”, the Activity [35] was 0.695 g and the Activity [36] was “Active”.
